Laboratory results reported in publication PMC5146677, “Structural Analysis of Glycine Sarcosine N-methyltransferase from Methanohalophilus portucalensis Reveals Mechanistic Insights into the Regulation of Methyltransferase Activity” (Scientific Reports, 2016).

Experiments:
MpGSMT [1] = target: T1, MpGSMT (Methanohalophilus portucalensis, UniProt F6KV61, N100Q); assay: methyltransferase activity with betaine; assay type: biochemical; conditions: feedback inhibitor, allosteric; mutant has low activity
T1 construct: gene gsmt
T1 sequence (F6KV61 entry or part of it N100Q): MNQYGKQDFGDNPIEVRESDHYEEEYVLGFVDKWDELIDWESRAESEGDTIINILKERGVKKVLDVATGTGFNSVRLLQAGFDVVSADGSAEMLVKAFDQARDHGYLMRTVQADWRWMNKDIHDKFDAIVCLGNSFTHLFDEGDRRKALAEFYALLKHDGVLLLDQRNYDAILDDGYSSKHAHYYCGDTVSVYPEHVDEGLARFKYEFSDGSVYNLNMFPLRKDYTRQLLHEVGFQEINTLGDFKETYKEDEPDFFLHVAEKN

MpGSMT [2] = target: T2, MpGSMT (Methanohalophilus portucalensis, UniProt F6KV61); assay: X-ray crystal structure, soaking; assay type: binding
T2 construct: gene gsmt
T2 sequence (F6KV61 1-263): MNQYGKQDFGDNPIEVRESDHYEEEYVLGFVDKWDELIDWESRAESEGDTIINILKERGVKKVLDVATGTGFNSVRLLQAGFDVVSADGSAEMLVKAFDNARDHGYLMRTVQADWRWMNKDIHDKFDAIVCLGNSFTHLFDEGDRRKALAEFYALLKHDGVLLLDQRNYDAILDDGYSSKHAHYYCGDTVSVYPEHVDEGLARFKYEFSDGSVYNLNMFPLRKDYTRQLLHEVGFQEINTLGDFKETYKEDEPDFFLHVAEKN

MpGSMT [3] = target: T3, MpGSMT (Methanohalophilus portucalensis, UniProt F6KV61, H104K); assay: methyltransferase activity with betaine; assay type: biochemical; conditions: feedback inhibitor, allosteric
T3 construct: gene gsmt
T3 sequence (F6KV61 entry or part of it H104K): as the sequence (F6KV61 entry or part of it N100Q) above, with Q100N, H104K counted along it

MpGSMT [4] = target: T2, MpGSMT; assay: X-ray crystal structure, co-crystal; assay type: binding; conditions: cofactor site; with sarcosine; 0.1 mM SAH
MpGSMT [5] = target: T2, MpGSMT; assay: X-ray crystal structure, co-crystal and soaking; assay type: binding; conditions: active site; with SAH (5HIL) or SAM (5GWX); inactive conformation
Text: X-ray crystal structure, co-crystal and soaking on […] | crystal structure of […] in complex with the sarcosine substrate and the SAH cofactor

Structure (SMILES): C[N+](C)(C)CC(=O)[O-] [betaine]
- betaine sensitivity (MpGSMT [1]): MpGSMT^N100Q displayed a decreased response to betaine
- X-ray crystal structure, soaking (MpGSMT [2]; allosteric feedback inhibitor site near Trp40, 1.7 M betaine soak): the observed MpGSMT structure indeed harbors a pocket for interacting directly with betaine
- betaine sensitivity (MpGSMT [3]): MpGSMT^H104K exhibited increased sensitivity to betaine

Structure (SMILES): C[S+](CC[C@H](N)C(=O)O)C[C@H]1O[C@@H](n2cnc3c(N)ncnc32)[C@H](O)[C@@H]1O (stereo partly drawn) [SAM]
- X-ray crystal structure, soaking (MpGSMT [2]; cofactor site, binary (5HIK) or with sarcosine (5GWX), 2 mM SAM): clear electron density maps corresponding to sarcosine and SAM in the active site

Structure (SMILES): Nc1ncnc2c1ncn2[C@@H]1O[C@H](CSCC[C@H](N)C(=O)O)[C@@H](O)[C@H]1O [SAH]
- X-ray crystal structure, co-crystal (MpGSMT [4]): Clear electron density is visible for bound sarcosine and SAH

Structure (SMILES): CNCC(=O)O [sarcosine]
- X-ray crystal structure, co-crystal and soaking (MpGSMT [5]): crystal structure of MpGSMT in complex with the sarcosine substrate and the SAH cofactor
